Laboratory results reported in BindingDB's records for doi:10.1021/jm00365a017 (1983).

Molecular target: Delta-type opioid receptor (Mus musculus) (UniProt P32300)
Experiment: Ability to induce 50% of maximal effect in mouse vas deferens expressing Opioid receptor delta 1

Chain of Delta-type opioid receptor (Mus musculus) (P32300 whole entry, looked up): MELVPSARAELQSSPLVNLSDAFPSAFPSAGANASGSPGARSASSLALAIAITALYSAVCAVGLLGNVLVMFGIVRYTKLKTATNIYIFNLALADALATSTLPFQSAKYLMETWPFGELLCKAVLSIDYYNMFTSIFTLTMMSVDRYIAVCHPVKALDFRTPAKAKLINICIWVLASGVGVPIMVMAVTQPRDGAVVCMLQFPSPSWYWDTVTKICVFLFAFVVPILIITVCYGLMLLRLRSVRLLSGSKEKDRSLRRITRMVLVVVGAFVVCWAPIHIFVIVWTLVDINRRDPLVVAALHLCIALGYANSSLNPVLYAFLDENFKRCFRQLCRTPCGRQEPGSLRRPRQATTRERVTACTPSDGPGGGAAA

Q: With `CC1C2Cc3ccc(O)cc3C1(C)CCN2CCc1ccccc1` (stereo unspecified) as the molecule, how does the IC50 read?
A: 8 nM
